Measured values: ChEMBL document CHEMBL1671789, “Evaluation of quinazoline analogues as glucocerebrosidase inhibitors with chaperone activity” (J Med Chem, 2011)
The source made the active and inactive calls. How the calls were made is not given here.

Legend:
[1] = Inhibition of alpha-galactosidase
[2] = Inhibition of alpha-glucosidase
Further: test concentration or dose not given here.

Row | Structure (SMILES) | Activity [1] | Activity [2]
1 | O=S(=O)(c1ccc(F)cc1)N1CCN(c2nc(C3CC3)nc3ccccc23)CC1 | inactive | inactive
2 | Cc1ccc(S(=O)(=O)N2CCCN(c3nc(-c4cccs4)nc4ccccc34)CC2)cc1 | inactive | inactive
3 | N#Cc1ccc(S(=O)(=O)N2CCN(c3nc(-c4cccs4)nc4ccccc34)CC2)cc1 | inactive | inactive
4 | CC(C)(C)OC(=O)N1CCN(c2nc(-c3cccs3)nc3ccccc23)CC1 | inactive | inactive
5 | Cc1ccc(S(=O)(=O)N(C)CCN(C)c2nc(-c3cccs3)nc3ccccc23)cc1 | inactive | inactive
6 | Cc1ccc(S(=O)(=O)N2CCN(c3nc(-c4cccs4)nc4ccccc34)CC2)c(C)c1 | inactive | inactive
7 | CC1(C)CCc2cc(S(=O)(=O)N3CCN(c4nc(-c5cccs5)nc5ccccc45)CC3)ccc2O1 | inactive | inactive
8 | Cc1ccc(S(=O)(=O)N2CCN(c3nc(-c4cscn4)nc4ccccc34)CC2)cc1 | inactive | inactive
9 | Cc1cc(C)cc(S(=O)(=O)N2CCN(c3nc(-c4cccs4)nc4ccccc34)CC2)c1 | inactive | inactive
10 | Cc1ccc(S(=O)(=O)N2CCN(c3nc(-c4ccc(CN5CCOCC5)s4)nc4ccccc34)CC2)cc1 | inactive | inactive
11 | O=S(=O)(c1ccc2c(c1)CCCC2)N1CCN(c2nc(-c3cccs3)nc3ccccc23)CC1 | inactive | inactive
12 | O=S(=O)(c1cc(Cl)cc(Cl)c1)N1CCN(c2nc(-c3cccs3)nc3ccccc23)CC1 | inactive | inactive
13 | Cc1ccc(S(=O)(=O)N2CCN(c3nc(-c4ccc(C)s4)nc4ccccc34)CC2)cc1 | inactive | inactive
14 | COc1ccc(S(=O)(=O)N2CCN(c3nc(-c4cccs4)nc4ccccc34)CC2)cc1OC | inactive | inactive
15 | Cc1ccc(S(=O)(=O)N2CCN(c3nc(-c4cccs4)nc4cccnc34)CC2)cc1 | inactive | inactive
16 | CC(C)S(=O)(=O)N1CCN(c2nc(-c3cccs3)nc3ccccc23)CC1 | inactive | inactive
17 | CC(=O)c1nc(N2CCN(S(=O)(=O)c3ccc(C)cc3)CC2)c2ccccc2n1 | inactive | inactive
18 | Cc1ccc(S(=O)(=O)N2CCN(c3nc(-n4cnc5ccccc54)nc4ccccc34)CC2)cc1 | inactive | inactive

Row | Structure (SMILES) | Activity [1] | Activity [2]
19 | Cc1ccc(S(=O)(=O)N2CCN(c3ncnc4ccccc34)CC2)cc1 | inactive | inactive
20 | COc1ccc(N2CCN(c3nc(-c4cccs4)nc4ccccc34)CC2)cc1 | inactive | inactive
21 | CN(CCN(C)c1nc(-c2cccs2)nc2ccccc12)C(=O)OC(C)(C)C | inactive | inactive
22 | O=S(=O)(c1ccc(OC(F)(F)F)cc1)N1CCN(c2nc(-c3cccs3)nc3ccccc23)CC1 | inactive | inactive
23 | Fc1ccccc1N1CCN(c2nc(-c3cccs3)nc3ccccc23)CC1 | inactive | inactive
24 | Cc1ccc(S(=O)(=O)N2CCN(c3nc(-c4ccc(CN5CCNCC5)s4)nc4ccccc34)CC2)cc1 | inactive | inactive
25 | Cc1ccc(S(=O)(=O)N2CCN(c3ccnc(-c4cccs4)n3)CC2)cc1 | inactive | inactive
26 | CC(C)(C)c1cccc(S(=O)(=O)N2CCN(c3nc(-c4cccs4)nc4ccccc34)CC2)c1 | inactive | inactive
27 | CC(C)(C)C(=O)OCCNc1nc(-c2cccs2)nc2ccccc12 | inactive | inactive
28 | O=S(=O)(c1ccc2ncsc2c1)N1CCN(c2nc(-c3cccs3)nc3ccccc23)CC1 | inactive | inactive
29 | CCOC(=O)c1ccc(S(=O)(=O)N2CCN(c3nc(-c4cccs4)nc4ccccc34)CC2)cc1 | inactive | inactive
30 | O=S(=O)(c1ccc(C(F)(F)F)cc1)N1CCN(c2nc(-c3cccs3)nc3ccccc23)CC1 | inactive | inactive
31 | CC(=O)N1CCN(c2nc(-c3cccs3)nc3ccccc23)CC1 | inactive | inactive
32 | COc1ccc(S(=O)(=O)N2CCN(c3nc(-c4cccs4)nc4ccccc34)CC2)cc1 | inactive | inactive
33 | O=S(=O)(N1CCN(c2nc(-c3cccs3)nc3ccccc23)CC1)C(F)(F)F | inactive | inactive
34 | CS(=O)(=O)N1CCN(c2nc(-c3cccs3)nc3ccccc23)CC1 | inactive | inactive
35 | Oc1ccc(N2CCN(c3nc(-c4cccs4)nc4ccccc34)CC2)cc1 | inactive | inactive

Further lines, results first:

Row | Activity [1] | Activity [2] | Structure (SMILES)
36 | inactive | inactive | O=S(=O)(c1nccs1)N1CCN(c2nc(-c3cccs3)nc3ccccc23)CC1
37 | inactive | inactive | O=S(=O)(c1cccc(F)c1)N1CCN(c2nc(-c3cccs3)nc3ccccc23)CC1
38 | inactive | inactive | O=S(=O)(c1ccc(F)cc1)N1CCN(c2nc(-c3cccs3)nc3ccccc23)CC1
39 | inactive | inactive | O=S(=O)(c1cccc(C(F)(F)F)c1)N1CCN(c2nc(-c3ccccc3)nc3ccccc23)CC1
40 | inactive | inactive | O=[N+]([O-])c1ccc(S(=O)(=O)N2CCN(c3nc(-c4ccccc4)nc4ccccc34)CC2)cc1
41 | inactive | inactive | O=S(=O)(c1ccc(F)cc1)N1CCN(c2nc(-c3ccccc3)nc3ccccc23)CC1
42 | inactive | inactive | O=[N+]([O-])c1ccccc1S(=O)(=O)N1CCN(c2nc(-c3ccccc3)nc3ccccc23)CC1
43 | inactive | inactive | COc1cccc(S(=O)(=O)N2CCN(c3nc(-c4cccs4)nc4ccccc34)CC2)c1
44 | inactive | inactive | N#Cc1ccccc1S(=O)(=O)N1CCN(c2nc(-c3cccs3)nc3ccccc23)CC1
45 | inactive | inactive | Cc1ccc(S(=O)(=O)N2CCN(c3nc(-c4ccccc4)nc4ccccc34)CC2)cc1
46 | inactive | inactive | Cc1ccc(S(=O)(=O)N2CCN(c3nc(-c4ccoc4)nc4ccccc34)CC2)cc1
47 | inactive | inactive | O=S(=O)(c1ccccc1Cl)N1CCN(c2nc(-c3ccccc3)nc3ccccc23)CC1
48 | inactive | inactive | O=S(=O)(/C=C/c1ccccc1)N1CCN(c2nc(-c3cccnc3)nc3ccccc23)CC1
49 | inactive | inactive | O=S(=O)(c1ccc2c(c1)CCC2)N1CCN(c2nc(-c3ccccc3)nc3ccccc23)CC1
50 | inactive | inactive | O=S(=O)(c1ccsc1)N1CCN(c2nc(-c3cccs3)nc3ccccc23)CC1
51 | inactive | inactive | O=S(=O)(c1ccc2ccccc2c1)N1CCN(c2nc(-c3ccccc3)nc3ccccc23)CC1
52 | inactive | inactive | O=S(=O)(c1ccc(OC(F)(F)F)cc1)N1CCN(c2nc(-c3ccccc3)nc3ccccc23)CC1

Row | Activity [1] | Activity [2] | Structure (SMILES)
53 | inactive | inactive | O=S(=O)(c1ccccc1Br)N1CCN(c2nc(-c3ccccc3)nc3ccccc23)CC1
54 | inactive | inactive | O=S(=O)(c1ccc(C(F)(F)F)cc1)N1CCN(c2nc(-c3ccccc3)nc3ccccc23)CC1
55 | inactive | inactive | O=S(=O)(c1cccc(Br)c1)N1CCN(c2nc(-c3cccs3)nc3ccccc23)CC1
56 | inactive | inactive | Cc1ccc(S(=O)(=O)N2CCN(c3nc(-c4ccnnc4)nc4ccccc34)CC2)cc1
57 | inactive | inactive | O=S(=O)(c1cccs1)N1CCN(c2nc(-c3cccs3)nc3ccccc23)CC1
58 | inactive | inactive | O=S(=O)(c1cnc2ccccc2c1)N1CCN(c2nc(-c3cccs3)nc3ccccc23)CC1
59 | inactive | inactive | O=S(=O)(/C=C/c1ccccc1)N1CCN(c2nc(-c3ccccc3)nc3ccccc23)CC1
60 | inactive | inactive | O=S(=O)(c1ccc(Br)cc1)N1CCN(c2nc(-c3ccccc3)nc3ccccc23)CC1
61 | inactive | inactive | O=C(c1ccccc1)N1CCN(c2nc(-c3cccs3)nc3ccccc23)CC1
62 | inactive | inactive | CC(=O)c1cccc(S(=O)(=O)N2CCN(c3nc(-c4cccs4)nc4ccccc34)CC2)c1
63 | inactive | inactive | N#Cc1cccc(S(=O)(=O)N2CCN(c3nc(-c4cccs4)nc4ccccc34)CC2)c1
64 | inactive | inactive | O=S(=O)(c1ccc(Cl)cc1)N1CCN(c2nc(-c3cccs3)nc3ccccc23)CC1
65 | inactive | inactive | O=S(=O)(c1ccc2ncccc2c1)N1CCN(c2nc(-c3cccs3)nc3ccccc23)CC1
66 | inactive | inactive | CCOC(=O)c1ccc(S(=O)(=O)N2CCN(c3nc(-c4ccccc4)nc4ccccc34)CC2)cc1
67 | inactive | inactive | Cc1ccc(S(=O)(=O)N2CCN(c3nc(-c4ccncc4)nc4ccccc34)CC2)cc1
68 | inactive | inactive | Cc1ccc(S(=O)(=O)N2CCN(c3nc(-c4cncs4)nc4ccccc34)CC2)cc1
69 | inactive | inactive | O=S(=O)(c1cccnc1)N1CCN(c2nc(-c3cccs3)nc3ccccc23)CC1
